Measurements published in patent US20260285850A1, “SUBSTITUTED OXAZOLIDINONES AND IMIDAZOLINONES AS HERBICIDES” (FMC CORPORATION, priority 2023, published 2026).

Legend:
Assay type in all cases: in vivo
[1] = tested on: ragweed (common ragweed, Ambrosia artemisiifolia); experiment: Test A postemergence application, visual injury rating 0-100
Procedure, shortened: (§1)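 Compound in a non-phytotoxic, surfactant-containing solvent is applied either as a directed soil spray before seedlings emerge or onto emerged plants 2-10 cm tall; pots hold a loam-sand blend. Plants grow 10 days under greenhouse conditions and are rated by eye against untreated controls (0 no effect, 100 complete control).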

[2] = tested on: blackgrass (Alopecurus myosuroides); experiment: as above
Procedure, shortened: as §1

[3] = tested on: ryegrass, Italian (italian ryegrass, Lolium multiflorum); experiment: as above
Procedure, shortened: as §1

[4] = tested on: wheat (Triticum aestivum); experiment: as above
Procedure, shortened: as §1

kochia (Bassia scoparia) [5] = experiment: as above
Procedure, shortened: as §1

[6] = tested on: green foxtail (Setaria viridis); experiment: as above
Procedure, shortened: as §1

corn (Zea mays) [7] = experiment: as above
Procedure, shortened: as §1

[8] = tested on: oat, wild (wild oat, Avena fatua); experiment: as above
Procedure, shortened: as §1

soybean (Glycine max) [9] = experiment: as above
Procedure, shortened: as §1

[10] = tested on: palmer (palmer amaranth, palmer pigweed, Amaranthus palmeri); experiment: as above
Procedure, shortened: as §1

[11] = tested on: galium (catchweed bedstraw, Galium aparine); experiment: as above; conditions: Postemergence, 16 g ai/ha, greenhouse 10 days; 0 no effect, 100 complete control
Procedure, shortened: as §1

[12] = tested on: horseweed (Erigeron canadensis); experiment: as above
Procedure, shortened: as §1

[13] = tested on: barnyardgrass (Echinochloa crus-galli); experiment: as above
Procedure, shortened: as §1

rice (Oryza sativa) = experiment: Test B flooded paddy test, visual plant response rating 0-100; conditions: 250 g ai/ha, Flood, applied to paddy water, evaluated after 13 days
Procedure, shortened: (§2)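 Each species was raised to two leaves before flooding to a 3 cm depth and dosing the water with compound. Injury was assessed by eye after 13 days under greenhouse conditions.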

[14] = tested on: ducksalad (Heteranthera limosa); experiment: as above; conditions: 250 g ai/ha, Flood, applied to paddy water, evaluated after 13 days
Procedure, shortened: as §2

[15] = tested on: sedge, umbrella (small-flower umbrella sedge, Cyperus difformis); experiment: as above; conditions: 250 g ai/ha, Flood, applied to paddy water, evaluated after 13 days
Procedure, shortened: as §2

[16] = tested on: barnyardgrass (Echinochloa crusgalli); experiment: as above; conditions: 250 g ai/ha, Flood, applied to paddy water, evaluated after 13 days
Procedure, shortened: as §2

[17] = tested on: ragweed (common ragweed, Ambrosia artemisiifolia); experiment: Test A preemergence soil spray, visual injury rating 0-100; conditions: 10 days
Procedure, shortened: as §1

[18] = tested on: blackgrass (Alopecurus myosuroides); experiment: as above; conditions: 10 days
Procedure, shortened: as §1

[19] = tested on: ryegrass, Italian (italian ryegrass, Lolium multiflorum); experiment: as above; conditions: 10 days
Procedure, shortened: as §1

[20] = tested on: wheat (Triticum aestivum); experiment: as above; conditions: 10 days
Procedure, shortened: as §1

kochia (Bassia scoparia) [21] = experiment: as above; conditions: 10 days
Procedure, shortened: as §1

[22] = tested on: green foxtail (Setaria viridis); experiment: as above; conditions: 10 days
Procedure, shortened: as §1

corn (Zea mays) [23] = experiment: as above; conditions: 10 days
Procedure, shortened: as §1

[24] = tested on: oat, wild (wild oat, Avena fatua); experiment: as above; conditions: 10 days
Procedure, shortened: as §1

soybean (Glycine max) [25] = experiment: as above; conditions: 10 days
Procedure, shortened: as §1

[26] = tested on: palmer (palmer amaranth, palmer pigweed, Amaranthus palmeri); experiment: as above; conditions: 10 days
Procedure, shortened: as §1

[27] = tested on: barnyardgrass (Echinochloa crus-galli); experiment: as above; conditions: 10 days
Procedure, shortened: as §1

[28] = 62 g ai/ha, postemergence, 10 days, 0 = no effect, 100 = complete control
[29] = Postemergence, 16 g ai/ha, greenhouse 10 days, 0 no effect, 100 complete control
[30] = 62 g ai/ha, 0 = no effect, 100 = complete control

SMILES: CC1(C(=O)NC2CC=C(C(=O)OCC(F)F)C2)CN(c2cc(Cl)cc(Cl)c2)C(=O)O1 (stereo not drawn) [Compound 154]
- Ragweed plant response rating (0-100) [1, 28]: 90
- Ragweed plant response rating (0 to 100 scale) [1, 29]: 40
- Blackgrass plant response rating (0-100) [2, 28]: 0
- Blackgrass plant response rating (0 to 100 scale) [2, 29]: 0
- Ryegrass, Italian plant response rating (0-100) [3, 28]: 80
- Ryegrass, Italian plant response rating (0 to 100 scale) [3, 29]: 60
- Wheat plant response rating (0-100) [4, 28]: 90
- Wheat plant response rating (0 to 100 scale) [4, 29]: 70
- Kochia plant response rating (0-100) (kochia (Bassia scoparia) [5]; [28]): 90
- Kochia plant response rating (0 to 100 scale) (kochia (Bassia scoparia) [5]; [29]): 90
- Foxtail, Green plant response rating (0-100) [6, 28]: 90
- Foxtail, Green plant response rating (0 to 100 scale) [6, 29]: 80
- Corn plant response rating (0-100) (corn (Zea mays) [7]; [28]): 100
- Corn plant response rating (0 to 100 scale) (corn (Zea mays) [7]; [29]): 100
- Oat, Wild plant response rating (0-100) [8, 28]: 90
- Oat, Wild plant response rating (0 to 100 scale) [8, 29]: 20
- Soybean plant response rating (0-100) (soybean (Glycine max) [9]; [28]): 60
- Soybean plant response rating (0 to 100 scale) (soybean (Glycine max) [9]; [29]): 60
- Pigweed, Palmer plant response rating (0-100) [10, 28]: 90
- Pigweed, Palmer plant response rating (0 to 100 scale) [10, 29]: 90
- Galium plant response rating (0 to 100 scale) [11]: 50
- Horseweed plant response rating (0-100) [12, 28]: 70
- Horseweed plant response rating (0 to 100 scale) [12, 29]: 70
- Barnyardgrass plant response rating (0-100) [13, 28]: 100
- Barnyardgrass plant response rating (0 to 100 scale) [13, 29]: 100
- Plant response rating, Rice (0 to 100 scale, 0 is no effect and 100 is complete control) (rice (Oryza sativa)): 95
- Plant response rating, Ducksalad (0 to 100 scale, 0 is no effect and 100 is complete control) [14]: 70
- Plant response rating, Sedge, Umbrella (0 to 100 scale, 0 is no effect and 100 is complete control) [15]: 95
- Plant response rating, Barnyardgrass (0 to 100 scale, 0 is no effect and 100 is complete control) [16]: 98
- Ragweed plant response rating ([17]; 16 g ai/ha, 0 to 100 scale): 0
- Ragweed plant response rating (0-100) [17, 30]: 50
- Blackgrass plant response rating ([18]; 16 g ai/ha, 0 to 100 scale): 0
- Blackgrass plant response rating (0-100) [18, 30]: 0
- Ryegrass, Italian plant response rating ([19]; 16 g ai/ha, 0 to 100 scale): 30
- Ryegrass, Italian plant response rating (0-100) [19, 30]: 80
- Wheat plant response rating ([20]; 16 g ai/ha, 0 to 100 scale): 10
- Wheat plant response rating (0-100) [20, 30]: 60
- Kochia plant response rating (kochia (Bassia scoparia) [21]; 16 g ai/ha, 0 to 100 scale): 20
- Kochia plant response rating (0-100) (kochia (Bassia scoparia) [21]; [30]): 90
- Foxtail, Green plant response rating ([22]; 16 g ai/ha, 0 to 100 scale): 40
- Foxtail, Green plant response rating (0-100) [22, 30]: 90
- Corn plant response rating (corn (Zea mays) [23]; 16 g ai/ha, 0 to 100 scale): 20
- Corn plant response rating (0-100) (corn (Zea mays) [23]; [30]): 30
- Oat, Wild plant response rating ([24]; 16 g ai/ha, 0 to 100 scale): 0
- Oat, Wild plant response rating (0-100) [24, 30]: 20
- Soybean plant response rating (soybean (Glycine max) [25]; 16 g ai/ha, 0 to 100 scale): 0
- Soybean plant response rating (0-100) (soybean (Glycine max) [25]; [30]): 50
- Pigweed, Palmer plant response rating ([26]; 16 g ai/ha, 0 to 100 scale): 60
- Pigweed, Palmer plant response rating (0-100) [26, 30]: 100
- Barnyardgrass plant response rating ([27]; 16 g ai/ha, 0 to 100 scale): 30
- Barnyardgrass plant response rating (0-100) [27, 30]: 90
